Legend:
MV4-11 = assay: Antiproliferative activity against human MV4-11 cells; assay type: functional, cell-based
SUD4 [1] = assay: Antiproliferative activity against over expressing […] human SUDHL4 cells; assay type: functional, cell-based; conditions: SU-DHL-4
[2] = Antiproliferative activity against over expressing […] human WSU-DLCL2 cells; assay type: functional; conditions: WSUDLCL2
[3] = molecular target: T1, Histone-lysine N-methyltransferase EZH2 (Homo sapiens, UniProt Q15910); assay: Inhibition of wild type EZH2 (unknown origin) by AlphaLISA assay
Target sequence in this assay (Q15910 whole entry): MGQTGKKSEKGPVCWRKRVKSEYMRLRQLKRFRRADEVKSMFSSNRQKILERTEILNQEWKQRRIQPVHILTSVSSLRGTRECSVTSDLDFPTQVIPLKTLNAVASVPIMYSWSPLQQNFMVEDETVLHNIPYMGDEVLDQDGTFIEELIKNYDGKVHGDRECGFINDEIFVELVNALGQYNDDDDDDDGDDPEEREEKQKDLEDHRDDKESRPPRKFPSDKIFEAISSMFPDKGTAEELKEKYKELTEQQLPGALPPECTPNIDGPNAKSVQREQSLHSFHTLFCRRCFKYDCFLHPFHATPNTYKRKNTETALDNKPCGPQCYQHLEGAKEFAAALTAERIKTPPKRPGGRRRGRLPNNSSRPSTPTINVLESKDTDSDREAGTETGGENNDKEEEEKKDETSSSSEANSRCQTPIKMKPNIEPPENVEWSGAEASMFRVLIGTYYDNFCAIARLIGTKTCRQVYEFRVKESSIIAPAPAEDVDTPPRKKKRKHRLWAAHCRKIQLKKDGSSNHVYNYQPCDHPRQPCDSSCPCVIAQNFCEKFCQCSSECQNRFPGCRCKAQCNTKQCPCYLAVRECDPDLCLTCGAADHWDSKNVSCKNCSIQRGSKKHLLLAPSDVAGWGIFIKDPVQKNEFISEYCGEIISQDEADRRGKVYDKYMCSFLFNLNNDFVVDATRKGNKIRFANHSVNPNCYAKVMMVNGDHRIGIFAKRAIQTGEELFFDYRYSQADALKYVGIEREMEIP

SUD4 [4] = assay: Induction of apoptosis in human SUDHL4 cells assessed as viable cells at 1 uM after 6 days by AnnexinV/propidium iodide staining based flow cytometry analysis (reference value: 92.7 %); assay type: functional; conditions: SU-DHL-4, 144 h, read-out: Activity
SUD4 [5] = assay: Induction of apoptosis in human SUDHL4 cells assessed as necrotic cells at 4 uM after 6 days by AnnexinV/propidium iodide staining based flow cytometry analysis (reference value: 0.737 %); assay type: functional
SUD4 [6] = assay: Induction of apoptosis in human SUDHL4 cells assessed as necrotic cells at 2 uM after 6 days by AnnexinV/propidium iodide staining based flow cytometry analysis (reference value: 0.737 %); assay type: functional
SUD4 [7] = assay: Induction of apoptosis in human SUDHL4 cells assessed as early apoptotic cells at 4 uM after 6 days by AnnexinV/propidium iodide staining based flow cytometry analysis (reference value: 0.061 %); assay type: functional
SUD4 [8] = assay: Induction of apoptosis in human SUDHL4 cells assessed as viable cells at 2 uM after 6 days by AnnexinV/propidium iodide staining based flow cytometry analysis (reference value: 92.7 %); assay type: functional; conditions: SU-DHL-4, 144 h, read-out: Activity
SUD4 [9] = assay: Induction of apoptosis in human SUDHL4 cells assessed as late apoptotic cells at 4 uM after 6 days by AnnexinV/propidium iodide staining based flow cytometry analysis (reference value: 2.01 %); assay type: functional
SUD4 [10] = assay: Induction of apoptosis in human SUDHL4 cells assessed as early apoptotic cells at 2 uM after 6 days by AnnexinV/propidium iodide staining based flow cytometry analysis (reference value: 0.061 %); assay type: functional
SUD4 [11] = assay: Induction of apoptosis in human SUDHL4 cells assessed as early apoptotic cells at 1 uM after 6 days by AnnexinV/propidium iodide staining based flow cytometry analysis (reference value: 0.061 %); assay type: functional
SUD4 [12] = assay: Induction of apoptosis in human SUDHL4 cells assessed as necrotic cells at 1 uM after 6 days by AnnexinV/propidium iodide staining based flow cytometry analysis (reference value: 0.737 %); assay type: functional
SUD4 [13] = assay: Induction of apoptosis in human SUDHL4 cells assessed as late apoptotic cells at 2 uM after 6 days by AnnexinV/propidium iodide staining based flow cytometry analysis (reference value: 2.01 %); assay type: functional
SUD4 [14] = assay: Induction of apoptosis in human SUDHL4 cells assessed as viable cells at 4 uM after 6 days by AnnexinV/propidium iodide staining based flow cytometry analysis (reference value: 92.7 %); assay type: functional; conditions: SU-DHL-4, 144 h, read-out: Activity
[15] = molecular target: T1, Histone-lysine N-methyltransferase EZH2; assay: Inhibition of EZH2 in human SUDHL4 cells assessed as reduction in H3K27 methylation measured after 6 days by western blot analysis; assay type: cell-based; conditions: SUD4
Target sequence in this assay (Q15910 whole entry, looked up): as the sequence (Q15910 whole entry) above

SUD4 [16] = assay: Induction of apoptosis in human SUDHL4 cells assessed as late apoptotic cells at 1 uM after 6 days by AnnexinV/propidium iodide staining based flow cytometry analysis (reference value: 2.01 %); assay type: functional

IC50 (MV4-11) [µM]	Structure (SMILES)	IC50 (SUD4 [1]) [µM]	IC50 [2] [µM]	other results
4.44	CCN(c1cc(/C=C/c2cccc(CN3CCOCC3)c2)cc(C(=O)NCc2c3c(c(C)[nH]c2=O)CCCC3)c1C)C1CCOCC1	> 30	> 30	
6.41	CCN(c1cc(/C=C/c2ccc(CN3CCOCC3)cc2)cc(C(=O)NCc2c3c(c(C)[nH]c2=O)CCCC3)c1C)C1CCOCC1	> 30	> 30	
3.87	CCN(c1cc(/C=C/c2ccc(CN3CCC4(CC3)OCCO4)cc2)cc(C(=O)NCc2c(C)c3c([nH]c2=O)CCCC3)c1C)C1CCOCC1	21.6	17.5	IC50 [3]: 189 nM
9.23	CCN(c1cc(/C=C/c2cccc(CN3CCOCC3)c2)cc(C(=O)NCc2c(C)c3c([nH]c2=O)CCCC3)c1C)C1CCOCC1	> 30	> 30	
> 30	CCN(c1cc(/C=C/c2ccc(N3CCOCC3)nc2)cc(C(=O)NCc2c(C)c3c([nH]c2=O)CCCC3)c1C)C1CCOCC1	> 30	25.8	
> 30	CCN(c1cc(/C=C/c2ccc(CN3CCOCC3)cc2)cc(C(=O)NCc2c(C)c3c([nH]c2=O)CCCC3)c1C)C1CCOCC1	25.7	> 30	
22.6	CCN(c1cc(/C=C/c2ccc(CN3CCN(C)CC3)cc2)cc(C(=O)NCc2c(C)c3c([nH]c2=O)CCCC3)c1C)C1CCOCC1	4.31	3.11	
> 30	CCN(c1cc(/C=C/c2ccc(N3CCOCC3)nc2)cc(C(=O)NCc2c3c(c(C)[nH]c2=O)CCCC3)c1C)C1CCOCC1	21.7	12.6	

More lines, now with the values behind:

Structure (SMILES)	IC50 (MV4-11) [µM]	IC50 (SUD4 [1]) [µM]	IC50 [2] [µM]	other results
CCN(c1cc(/C=C/c2ccc(CN3C[C@@H](C)O[C@@H](C)C3)c(F)c2)cc(C(=O)NCc2c(C)c3c([nH]c2=O)CCCC3)c1C)C1CCOCC1	12	20.4	> 30	
CCN(c1cc(/C=C/c2ccc(CN3C[C@H]4C[C@@H]3CO4)c(F)c2)cc(C(=O)NCc2c(C)c3c([nH]c2=O)CCCC3)c1C)C1CCOCC1	> 30	> 30	6.18	
CCN(c1cc(/C=C/c2ccc(CN3C[C@@H](C)O[C@@H](C)C3)cc2)cc(C(=O)NCc2c3c(c(C)[nH]c2=O)CCCC3)c1C)C1CCOCC1	> 30	> 30	> 30	
CCN(c1cc(/C=C/c2ccc(CN3CCN(C)CC3)cc2)cc(C(=O)NCc2c3c(c(C)[nH]c2=O)CCCC3)c1C)C1CCOCC1	> 30	5.96	2.58	
CCN(c1cc(-c2ccc(CN3CCOCC3)cc2)cc(C(=O)NCc2c(C)cc(C)[nH]c2=O)c1C)C1CCOCC1 [TAZEMETOSTAT]	22.4	14.3	17.8	
CCN(c1cc(/C=C/c2ccc(CN3C[C@@H](C)O[C@@H](C)C3)cc2)cc(C(=O)NCc2c(C)c3c([nH]c2=O)CCCC3)c1C)C1CCOCC1	8.04	> 30	> 30	
CCN(c1cc(/C=C/c2cccc(CN(C)C)c2)cc(C(=O)NCc2c(C)c3c([nH]c2=O)CCCC3)c1C)C1CCOCC1	3.98	15.7	20.9	
CCN(c1cc(/C=C/c2ccc(CN3C[C@@H](C)O[C@@H](C)C3)c(F)c2)cc(C(=O)NCc2c3c(c(C)[nH]c2=O)CCCC3)c1C)C1CCOCC1	4.36	> 30	27.7	
CCN(c1cc(/C=C/c2ccc(CN3C[C@@H]4C[C@H]3CO4)c(F)c2)cc(C(=O)NCc2c(C)c3c([nH]c2=O)CCCC3)c1C)C1CCOCC1	24.3	10.5	4.58	
CCN(c1cc(/C=C/c2ccc3c(c2)NC(=O)CO3)cc(C(=O)NCc2c3c(c(C)[nH]c2=O)CCCC3)c1C)C1CCOCC1	4.56	30	> 30	
CCN(c1cc(/C=C/c2ccc(/C=C/C(=O)OC)cc2)cc(C(=O)NCc2c3c(c(C)[nH]c2=O)CCCC3)c1C)C1CCOCC1			21.2	
CCN(c1cc(/C=C/c2ccc(CN3C[C@@H]4C[C@H]3CO4)c(F)c2)cc(C(=O)NCc2c3c(c(C)[nH]c2=O)CCCC3)c1C)C1CCOCC1	21.1	15.4	9.27	
CCN(c1cc(/C=C/c2ccc3c(c2)NC(=O)CO3)cc(C(=O)NCc2c(C)c3c([nH]c2=O)CCCC3)c1C)C1CCOCC1	5.69	25.7	> 30	
CCN(c1cc(-c2ccc(CN3CCN(C)CC3)cc2)cc(C(=O)NCc2c3c(c(C)[nH]c2=O)CCCC3)c1C)C1CCOCC1	> 30	1.78	1.64	
CCN(c1cc(/C=C/c2ccc(CN3C[C@H]4C[C@@H]3CO4)c(F)c2)cc(C(=O)NCc2c3c(c(C)[nH]c2=O)CCCC3)c1C)C1CCOCC1	> 30	> 30	5.85	
CCN(c1cc(/C=C/c2ccc(S(=O)(=O)N3CCOCC3)cc2)cc(C(=O)NCc2c(C)c3c([nH]c2=O)CCCC3)c1C)C1CCOCC1			> 30	
CCN(c1cc(/C=C/c2ccc(CN3CCC4(CC3)OCCO4)cc2)cc(C(=O)NCc2c3c(c(C)[nH]c2=O)CCCC3)c1C)C1CCOCC1	3.21	> 30	27.7	IC50 [3]: 55 nM
CCN(c1cc(/C=C/c2ccc(S(=O)(=O)N3CCOCC3)cc2)cc(C(=O)NCc2c3c(c(C)[nH]c2=O)CCCC3)c1C)C1CCOCC1			> 30	
CCN(c1cc(/C=C/c2cccc(CN(C)C)c2)cc(C(=O)NCc2c3c(c(C)[nH]c2=O)CCCC3)c1C)C1CCOCC1	2.8	2.34	1.61	viability at 1 µM (SUD4 [4]): 62.3%; Activity (SUD4 [5]): 0.824%; Activity (SUD4 [6]): 4.14%; Activity (SUD4 [7]): 0.369%; viability at 2 µM (SUD4 [8]): 25.5%; Activity (SUD4 [9]): 92.9%; Activity (SUD4 [10]): 1.28%; Activity (SUD4 [11]): 0.112%; Activity (SUD4 [12]): 1.34%; Activity (SUD4 [13]): 69.1%; viability at 4 µM (SUD4 [14]): 5.91%; inhibition [15]: Dose-dependent effect; Activity (SUD4 [16]): 36.2%

— ChEMBL document CHEMBL4627254, “Design and synthesis of (E)-1,2-diphenylethene-based EZH2 inhibitors” (Bioorg Med Chem Lett, 2020)
